Test results taken from patent US11221326B2 (TOPPAN PRINTING CO., LTD., priority 2016, dated 2022).

System: human lung cancer cell line NCI-H1975
Assay: Drug sensitivity by viable count analysis (CNT %), NCI-H1975 cells cultured with exosomes (Example 3)
Assay type: cell-based
Conditions: Gefitinib 10 μM, 72 hours
Experimental: As a cell culture vessel, a Transwell cell culture insert (#3470 manufactured by Corning Incorporated) was used. The culture medium used was D-MEM (043-30085 manufactured by Wako Pure Chemical Corporation) containing 10 vol/vol % of bovine serum (EXO-FBS-50A-1 manufactured by System Biosciences, LLC), and 1 vol/vol % of penicillin-streptomycin (168-23191 manufactured by Wako Pure Chemical Corporation).
Drugs were each assessed three times using a final concentration of 10 μM of Gefitinib.
As exosomes derived from drug resistant cell line, ones recovered from the culture supernatant of human lung cancer cell line A549 (ATCC No.: CCL-185)) by ultracentrifugation were used. Assessments were conducted with respect to two conditions of 0 exosomes (no addition of the exosomes derived from the drug resistant cell line), and 1×10^9 exosomes.
In viable count analysis, drug sensitivity was assessed, as in Example 1, by using a trypan blue solution and by counting cells in the fluorescence mode of a cell counter (Countess II) manufactured by Life Technologies Inc. In the drug sensitivity assessment,CNT(cell viability)%=(viable count with addition of drug)/(viable count with addition of no drug)×100(%) was used as an assessment value.
As a reference, cells with an addition of 1×10^9 exosomes derived from the serum of a healthy person were also assessed.
(1) 2×10^4 NCI-H1975 cells were seeded in a Transwell cell culture insert.
(2) An appropriate amount of culture medium was added to the Transwell cell culture insert, followed by culturing in a CO2 incubator (37° C., 5% CO2) for 24 hours.
(1) An appropriate amount of culture medium was mixed with exosomes to prepare exosome medium solutions containing 0 exosomes (no addition of exosomes derived from a drug resistant cell line) and 1×10^9 exosomes.
(2) Each solution was added to the Transwell cell culture insert, followed by culturing in a CO2 incubator (37° C., 5% CO2) for 24 hours.
(1) An appropriate amount of the culture medium was mixed with a drug so as to have a final concentration of […]. […]

Q: Which “CNT (%) Average value” (0 exosomes) does the source give for `COc1cc2ncnc(Nc3ccc(F)c(Cl)c3)c2cc1OCCCN1CCOCC1` [Gefitinib] here?
A: Its value is 59.9%.

Q: What about the “CNT (%) Average value” (1 × 10^9 exosomes derived from A549) of the same molecule?
A: The value was 89.2%.

Q: And the “CNT (%) Average value” (1 × 10^9 exosomes derived from serum of healthy person)?
A: Its value is 57.7%.
